Source: patent US20260217735A1, “HETEROCYCLES AND USES THEREOF” (Kumquat Biosciences Inc., priority 2023, published 2026)

Experiments:
Format in all cases: biochemical
KRAS G12D = biological target: T1, KRAS G12D (Homo sapiens, UniProt P01116, G12D); assay: HTRF assay, KRAS G12D interaction with SOS1; details: bins <500 nM / 500 nM to 1000 nM, read-out: Inhibition of KRAS G12D (IC50)
T1 construct: made in house; host or cells: E. coli, e.g. BL21 (DE3)
Source text: (§1) This assay can be also used to assess a selective inhibition or reduction of signaling output of a mutant Ras protein relative to a wildtype, or relative to a different mutant Ras protein. For example, the equilibrium interaction of wildtype KRAS or K-Ras mutant (e.g., wildtype or a mutant thereof) with SOS1 (e.g., hSOS1) can be assessed as a proxy or an indication for the ability of a subject compound to bind and inhibit Ras protein. The HTRF assay detects from (i) a fluorescence resonance energy transfer (FRET) donor (e.g., antiGST-Europium) that is bound to GST-tagged K-Ras mutant to (ii) a FRET acceptor (e.g., anti-6His-XL665) bound to a His-tagged hSOSL1.
(§2) The assay buffer can contain ~5 mM HEPES pH 7.4, ~150 mM NaCl, ~1 mM DTT, 0.05% BSA and 0.0025% (v/v) Igepal. A Ras working solution is prepared in an assay buffer containing typically a suitable amount of the protein construct (e.g., GST-tagged K-Ras mutant) and the FRET donor (e.g., antiGST-Eu(K) from Cisbio, France). A SOS1 working solution is prepared in an assay buffer containing suitable amount of the protein construct (e.g., His-hSOS1) and the FRET acceptor (e.g., anti-6His-XL665 from Cisbio, France). A suitable amount of the protein construct will depend on the range of activity or range of IC50 values being detected or under investigation. For detecting an IC50 within a range of 500 nM, the protein constructs of the same range of molarity can be utilized.
(§3) A fixed volume of DMSO with or without test compound is transferred into a 384-well plate. Ras working solution is added to all wells of the test plate. SOS1 working solution is added to all wells except for those that are subsequently filled with inhibitor control solution. Upon incubation for about 10 minutes or longer, the fluorescence is measured with a M1000Pro plate reader (Tecan) using HTRF detection (excitation 337 nm, emission 1: 620 nm, emission 2: 665 nm). Compounds are tested in duplicate at different concentrations (for example, 10 μM, 2.5 μM, 0.63 μM, 0.16 μM, 0.04 μM, 0.01 μM test compound). The ratiometric data (i.e., emission 2 divided by emission 1) is used to calculate IC50 values against Ras using GraphPad Prism (GraphPad software). Signaling output measured in terms of IC50 values can be obtained and a ratio of IC50 against one mutant relative to another mutant can be calculated. For instance, a selective reduction of K-Ras G12S signaling output can be evidenced by a ratio greater than one. In particular, a selective reduction of K-Ras G12S signaling relative to K-Ras WT signaling is evidenced if the ratio of IC50 (against K-Ras WT) to IC50 (against K-Ras G12S) is greater than 1.

KRAS G12S = biological target: T2, KRAS G12S (Homo sapiens, UniProt P01116, G12S); assay: HTRF assay, KRAS G12S interaction with SOS1; details: bins <500 nM / 500 nM to 1000 nM, read-out: Inhibition of KRAS G12S (IC50)
T2 construct: made in house; host or cells: E. coli, e.g. BL21 (DE3)
T2 sequence (P01116 1-188 isoform P01116-2 G12S): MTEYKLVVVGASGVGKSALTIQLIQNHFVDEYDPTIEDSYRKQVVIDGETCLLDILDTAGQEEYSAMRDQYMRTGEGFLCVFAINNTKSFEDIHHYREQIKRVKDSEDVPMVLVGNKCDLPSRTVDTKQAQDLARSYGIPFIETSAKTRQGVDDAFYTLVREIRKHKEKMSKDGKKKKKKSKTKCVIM
Source text: as §1, §2, §3

KRAS WT = biological target: T3, KRAS WT (Homo sapiens, UniProt P01116); assay: HTRF assay, wildtype KRAS interaction with SOS1; details: bins <500 nM / 500 nM to 1000 nM, read-out: Inhibition of KRAS WT (IC50)
T3 construct: made in house; host or cells: E. coli, e.g. BL21 (DE3)
T3 sequence (P01116 1-188 isoform P01116-2): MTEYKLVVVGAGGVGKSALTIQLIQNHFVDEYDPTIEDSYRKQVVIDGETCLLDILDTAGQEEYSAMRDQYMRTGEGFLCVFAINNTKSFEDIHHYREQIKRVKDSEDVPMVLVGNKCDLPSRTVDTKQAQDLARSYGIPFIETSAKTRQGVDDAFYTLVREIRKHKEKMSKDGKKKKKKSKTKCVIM
Source text: as §1, §2, §3

KRAS G12V = biological target: T4, KRAS G12V (Homo sapiens, UniProt P01116, G12V); assay: HTRF assay, KRAS G12V interaction with SOS1; details: bins <500 nM / 500 nM to 1000 nM, read-out: Inhibition of KRAS G12V (IC50)
T4 construct: made in house; host or cells: E. coli, e.g. BL21 (DE3)
T4 sequence (P01116 1-188 isoform P01116-2 G12V): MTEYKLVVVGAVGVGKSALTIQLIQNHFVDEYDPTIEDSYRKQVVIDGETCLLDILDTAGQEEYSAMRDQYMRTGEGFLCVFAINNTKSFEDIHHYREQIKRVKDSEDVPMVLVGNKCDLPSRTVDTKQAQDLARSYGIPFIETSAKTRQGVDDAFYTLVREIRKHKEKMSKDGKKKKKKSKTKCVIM
Source text: as §1, §2, §3

T1 sequence (P01116 1-188 isoform P01116-2 G12D): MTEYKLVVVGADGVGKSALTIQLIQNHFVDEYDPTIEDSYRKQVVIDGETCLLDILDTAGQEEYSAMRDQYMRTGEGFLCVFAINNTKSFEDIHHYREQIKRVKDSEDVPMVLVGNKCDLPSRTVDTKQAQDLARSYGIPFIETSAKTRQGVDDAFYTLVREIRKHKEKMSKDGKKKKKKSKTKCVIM

| IC50 (KRAS G12D) | IC50 (KRAS G12S) | IC50 (KRAS WT) | IC50 (KRAS G12V) | Compound |
| --- | --- | --- | --- | --- |
| < 500 nM | < 500 nM | < 500 nM | < 500 nM | Cc1cn(C(=O)N2C[C@]3(CCCCN(c4nc(OC[C@@]56CCCN5C[C@H](F)C6)nc5c(F)c(-c6ccc(F)c7sc(N)c(C#N)c67)c(Cl)cc45)C3)[C@H]2C2(C)CC2)cn1 [Compound 207, 2-amino-4-(6-chloro-8-fluoro-2-(((2R,7aS)-2-fluorotetrahydro-1H-pyrrolizin-7a(5H)-yl)methoxy)-4-((1R,4R)-2-(4-methyl-1H-imidazole-1-carbonyl)-1-(1-methylcyclopropyl)-2,6-diazaspiro[3.6]decan-6-yl)quinazolin-7-yl)-7-fluorobenzo[b]thiophene-3-carbonitrile] |
| < 500 nM | < 500 nM | < 500 nM | < 500 nM | CCN(c1nc(OC[C@@]23CCCN2C[C@H](F)C3)nc2c(F)c(-c3ccc(F)c4sc(N)c(C#N)c34)c(Cl)cc12)[C@@H]1CCN(C(=O)n2cnc3c2CCC3)[C@@H]1C [Compound 132, 2-amino-4-(6-chloro-4-(ethyl((2R,3R)-2-methyl-1-(1,4,5,6-tetrahydrocyclopenta[d]imidazole-1-carbonyl)pyrrolidin-3-yl)amino)-8-fluoro-2-(((2R,7aS)-2-fluorotetrahydro-1H-pyrrolizin-7a(5H)-yl)methoxy)quinazolin-7-yl)-7-fluorobenzo[b]thiophene-3-carbonitrile] |
| < 500 nM | < 500 nM | < 500 nM | < 500 nM | Cc1ncn(C(=O)N2CC3CCCN(c4nc(OC[C@@]56CCCN5C[C@H](F)C6)nc5c(F)c(-c6ccc(F)c7sc(N)c(C#N)c67)c(Cl)cc45)C3C2)c1C (stereo partly drawn) [Compound 206, 2-amino-4-(6-chloro-4-(6-(4,5-dimethyl-1H-imidazole-1-carbonyl)octahydro-1H-pyrrolo[3,4-b]pyridin-1-yl)-8-fluoro-2-(((2R,7aS)-2-fluorotetrahydro-1H-pyrrolizin-7a(5H)-yl)methoxy)quinazolin-7-yl)-7-fluorobenzo[b]thiophene-3-carbonitrile] |
| < 500 nM | < 500 nM | < 500 nM | < 500 nM | Cc1ncn(C(=O)N2C[C@H]3[C@@H]2CCCN3c2nc(OC[C@]34CCCN3C[C@@H](F)C4)nc3c(F)c(-c4ccc(F)c5sc(N)c(C#N)c45)c(Cl)cc23)c1C [Compound 129, 2-amino-4-(6-chloro-4-((1S,6S)-7-(4,5-dimethyl-1H-imidazole-1-carbonyl)-2,7-diazabicyclo[4.2.0]octan-2-yl)-8-fluoro-2-(((2S,7aR)-2-fluorotetrahydro-1H-pyrrolizin-7a(5H)-yl)methoxy)quinazolin-7-yl)-7-fluorobenzo[b]thiophene-3-carbonitrile] |
| < 500 nM | < 500 nM | < 500 nM | < 500 nM | Cc1cn(C(=O)N2CC[C@@H](N(C)c3nc(OC[C@@]45CCCN4C[C@H](F)C5)nc4c(F)c(-c5ccc(F)c6sc(N)c(C#N)c56)c(Cl)cc34)[C@H]2C)c(C)n1 [Compound 105, 2-amino-4-(6-chloro-4-(((2R,3R)-1-(2,4-dimethyl-1H-imidazole-1-carbonyl)-2-methylpyrrolidin-3-yl)(methyl)amino)-8-fluoro-2-(((2R,7aS)-2-fluorotetrahydro-1H-pyrrolizin-7a(5H)-yl)methoxy)quinazolin-7-yl)-7-fluorobenzo[b]thiophene-3-carbonitrile] |

The next lines start with the compound.

| Compound | IC50 (KRAS G12D) | IC50 (KRAS G12S) | IC50 (KRAS WT) | IC50 (KRAS G12V) |
| --- | --- | --- | --- | --- |
| CCN(c1nc(OC[C@@]23CCCN2C[C@H](F)C3)nc2c(F)c(-c3cccc4sc(N)c(C#N)c34)c(Cl)cc12)[C@@H]1CCN(C(=O)n2cc(C#N)nc2C)[C@@H]1C [Compound 113, 1-((2R,3R)-3-((7-(2-amino-3-cyanobenzo[b]thiophen-4-yl)-6-chloro-8-fluoro-2-(((2R,7aS)-2-fluorotetrahydro-1H-pyrrolizin-7a(5H)-yl)methoxy)quinazolin-4-yl)(ethyl)amino)-2-methylpyrrolidine-1-carbonyl)-2-methyl-1H-imidazole-4-carbonitrile] | < 500 nM | < 500 nM | < 500 nM | < 500 nM |
| CCN(c1nc(OC[C@@]23CCCN2C[C@H](F)C3)nc2c(F)c(-c3ccc(F)c4sc(N)c(C#N)c34)c(C3CC3)cc12)[C@@H]1CCN(C(=O)n2cc(C)nc2C)[C@@H]1C (atropisomer, axis not shown; (aS)) [Compound 190, (S)-2-amino-4-(6-cyclopropyl-4-(((2R,3R)-1-(2,4-dimethyl-1H-imidazole-1-carbonyl)-2-methylpyrrolidin-3-yl)(ethyl)amino)-8-fluoro-2-(((2R,7aS)-2-fluorotetrahydro-1H-pyrrolizin-7a(5H)-yl)methoxy)quinazolin-7-yl)-7-fluorobenzo[b]thiophene-3-carbonitrile] | < 500 nM | < 500 nM | < 500 nM | < 500 nM |
| CN(c1nc(OC[C@@]23CCCN2C[C@H](F)C3)nc2c(F)c(-c3ccc(F)c4sc(N)c(C#N)c34)c(Cl)cc12)C1CN(C(=O)n2ccnc2)CC1F (single isomer, unassigned) [Compound 191] | < 500 nM | < 500 nM | < 500 nM | < 500 nM |
| COCC1([C@H]2N(C(=O)n3cnc(C)c3)C[C@]23CCCCN(c2nc(OC[C@@]45CCCN4C[C@H](F)C5)nc4c(F)c(-c5ccc(F)c6sc(N)c(C#N)c56)c(Cl)cc24)C3)CC1 [Compound 203, 2-amino-4-(6-chloro-8-fluoro-2-(((2R,7aS)-2-fluorotetrahydro-1H-pyrrolizin-7a(5H)-yl)methoxy)-4-((1S,4R)-1-(1-(methoxymethyl)cyclopropyl)-2-(4-methyl-1H-imidazole-1-carbonyl)-2,6-diazaspiro[3.6]decan-6-yl)quinazolin-7-yl)-7-fluorobenzo[b]thiophene-3-carbonitrile] | < 500 nM | < 500 nM | < 500 nM | < 500 nM |
| CC1CC(N(C)c2nc(OC[C@@]34CCCN3C[C@H](F)C4)nc3c(F)c(-c4ccc(F)c5sc(N)c(C#N)c45)c(Cl)cc23)CCN1C(=O)n1ccnc1 (stereo partly drawn) [Compound 153, 4-(4-((1-(1H-imidazole-1-carbonyl)-2-methylpiperidin-4-yl)(methyl)amino)-6-chloro-8-fluoro-2-(((2R,7aS)-2-fluorotetrahydro-1H-pyrrolizin-7a(5H)-yl)methoxy)quinazolin-7-yl)-2-amino-7-fluorobenzo[b]thiophene-3-carbonitrile] | – | < 500 nM | < 500 nM | < 500 nM |
| CC1CC(N(C)c2nc(OC[C@@]34CCCN3C[C@H](F)C4)nc3c(F)c(-c4ccc(F)c5sc(N)c(C#N)c45)c(Cl)cc23)CN1C(=O)n1cnc(F)n1 (stereo partly drawn) [Compound 146, 2-amino-4-(6-chloro-8-fluoro-4-((1-(3-fluoro-1H-1,2,4-triazole-1-carbonyl)-5-methylpyrrolidin-3-yl)(methyl)amino)-2-(((2R,7aS)-2-fluorotetrahydro-1H-pyrrolizin-7a(5H)-yl)methoxy)quinazolin-7-yl)-7-fluorobenzo[b]thiophene-3-carbonitrile] | < 500 nM | < 500 nM | < 500 nM | < 500 nM |
